Measurements taken from US20020058275A1, “Compositions, kits, and methods for effecting adenine nucleotide modulation of DNA mismatch recognition proteins” (Thomas Jefferson University, priority 1997, published 2002).
Blank lines part the entries; values can stand above or below the molecule they belong to.

Columns and labels:
hMSH2:hMSH6 heterodimer [1] = target: T1, hMSH2:hMSH6 heterodimer (Homo sapiens, UniProt P43246+P52701); test: ADP exchange assay (filter binding of [3H]-ADP); settings: excess non-labeled ATP
T1 construct: made in house; host or cells: SF9 insect cells, baculovirus (pFastBac dual)
T1 sequence (P43246 whole entry): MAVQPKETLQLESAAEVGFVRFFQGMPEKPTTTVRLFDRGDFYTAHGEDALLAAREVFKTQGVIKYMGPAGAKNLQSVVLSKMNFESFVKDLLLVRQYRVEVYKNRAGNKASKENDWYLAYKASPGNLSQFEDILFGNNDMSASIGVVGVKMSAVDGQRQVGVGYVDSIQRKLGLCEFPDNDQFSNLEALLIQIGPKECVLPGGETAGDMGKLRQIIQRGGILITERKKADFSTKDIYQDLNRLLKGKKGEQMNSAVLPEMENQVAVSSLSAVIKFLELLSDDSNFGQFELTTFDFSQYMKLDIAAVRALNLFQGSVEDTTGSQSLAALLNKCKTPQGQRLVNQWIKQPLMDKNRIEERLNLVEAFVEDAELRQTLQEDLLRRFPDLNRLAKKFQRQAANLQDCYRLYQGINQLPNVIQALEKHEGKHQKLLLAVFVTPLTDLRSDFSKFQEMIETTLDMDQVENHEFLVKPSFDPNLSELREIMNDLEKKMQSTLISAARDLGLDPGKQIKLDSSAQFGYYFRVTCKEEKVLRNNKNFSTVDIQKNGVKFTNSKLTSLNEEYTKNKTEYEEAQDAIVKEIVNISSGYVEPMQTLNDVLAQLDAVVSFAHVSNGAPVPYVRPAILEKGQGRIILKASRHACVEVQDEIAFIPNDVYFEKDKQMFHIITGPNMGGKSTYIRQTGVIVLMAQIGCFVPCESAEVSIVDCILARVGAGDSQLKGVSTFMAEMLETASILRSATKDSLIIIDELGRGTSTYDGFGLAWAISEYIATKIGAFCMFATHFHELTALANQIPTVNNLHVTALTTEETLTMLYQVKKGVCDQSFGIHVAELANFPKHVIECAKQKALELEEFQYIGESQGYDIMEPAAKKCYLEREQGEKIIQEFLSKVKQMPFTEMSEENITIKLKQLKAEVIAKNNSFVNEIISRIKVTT
T1 sequence (P52701 whole entry): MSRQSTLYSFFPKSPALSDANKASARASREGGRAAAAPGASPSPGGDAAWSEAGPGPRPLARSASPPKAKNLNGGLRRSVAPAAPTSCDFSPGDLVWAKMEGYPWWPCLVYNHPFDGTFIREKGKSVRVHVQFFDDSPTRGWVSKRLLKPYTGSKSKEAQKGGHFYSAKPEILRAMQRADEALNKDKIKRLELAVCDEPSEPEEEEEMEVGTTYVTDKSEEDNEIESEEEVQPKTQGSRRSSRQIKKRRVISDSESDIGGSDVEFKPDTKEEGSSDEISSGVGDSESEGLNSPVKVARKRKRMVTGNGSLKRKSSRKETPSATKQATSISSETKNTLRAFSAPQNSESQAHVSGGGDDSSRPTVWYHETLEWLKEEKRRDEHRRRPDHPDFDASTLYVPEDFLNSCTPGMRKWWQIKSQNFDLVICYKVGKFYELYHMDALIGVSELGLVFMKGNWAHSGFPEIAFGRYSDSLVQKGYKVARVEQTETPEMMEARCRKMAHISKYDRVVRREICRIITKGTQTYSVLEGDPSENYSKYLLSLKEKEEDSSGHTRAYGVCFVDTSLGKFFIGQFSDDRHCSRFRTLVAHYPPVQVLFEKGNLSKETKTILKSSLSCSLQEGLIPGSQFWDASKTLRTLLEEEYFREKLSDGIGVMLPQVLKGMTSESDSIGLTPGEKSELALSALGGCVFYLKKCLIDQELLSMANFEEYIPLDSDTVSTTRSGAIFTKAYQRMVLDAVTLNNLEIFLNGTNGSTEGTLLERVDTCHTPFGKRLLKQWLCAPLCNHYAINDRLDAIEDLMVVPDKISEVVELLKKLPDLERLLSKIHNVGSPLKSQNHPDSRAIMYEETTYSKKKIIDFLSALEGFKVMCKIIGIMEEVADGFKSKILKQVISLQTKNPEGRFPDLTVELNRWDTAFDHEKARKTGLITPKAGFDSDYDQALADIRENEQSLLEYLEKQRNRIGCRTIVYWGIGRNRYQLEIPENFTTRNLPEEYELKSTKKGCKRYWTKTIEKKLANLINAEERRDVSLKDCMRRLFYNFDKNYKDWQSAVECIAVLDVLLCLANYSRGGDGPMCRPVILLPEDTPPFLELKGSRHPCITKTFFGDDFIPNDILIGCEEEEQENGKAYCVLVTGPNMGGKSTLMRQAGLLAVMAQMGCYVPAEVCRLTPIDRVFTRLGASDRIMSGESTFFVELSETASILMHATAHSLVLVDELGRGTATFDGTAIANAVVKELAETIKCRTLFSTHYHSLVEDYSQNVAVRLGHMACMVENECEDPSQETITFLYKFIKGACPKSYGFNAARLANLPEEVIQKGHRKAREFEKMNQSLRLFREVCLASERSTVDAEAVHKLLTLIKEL
Procedure: The ADP-ATP exchange rate was determined in a reaction mixture which comprised Buffer Q, 2.3 micromolar [^3H]-ADP, and 60 nanomolar hMSH2:hMSH6 heterodimer. Buffer Q comprised 25 millimolar HEPES which had been adjusted to pH 7.8 using NaOH, 75 millimolar NaCl, 10 millimolar MgCl2, 1 millimolar DTT, and 15% (v/v) glycerol. This reaction mixture was incubated for ten minutes at room temperature. 240 nanomolar G/T-mismatched 39-base pair DNA substrate was added to the reaction mixture, and the incubation was continued for an additional ten minutes. The final volume of the reaction mixture was 10 microliters. […] Reactions were incubated at 25° C. for a selected time and then halted by diluting the reaction mixture with 4 milliliters of an ice-cold stop buffer comprising 25 millimolar HEPES which had been adjusted to pH 7.8 using NaOH, 100 millimolar NaCl, and 10 millimolar MgCl2.
Each halted reaction mixture was immediately filtered on a HAWP nitrocellulose membrane (Millipore, Bedford, Mass.) and washed thrice with 4 milliliters of the ice-cold stop buffer. […] Radioactivity retained on the filters was quantified using a Beckman scintillation counter. […] The amount of [^3H]-ADP retained on the membrane to which the control reaction mixture was applied was considered to correspond to the amount of radioactivity retained when 100% of the complex had [^3H]-ADP bound thereto.

hMSH2:hMSH6 heterodimer [2] = target: T1, hMSH2:hMSH6 heterodimer; test: Gel mobility shift assay of adenine nucleotide effects on mismatch binding and release; type: biochemical; settings: for effect on G/T mismatch binding / release of the heterodimer from G/T-mismatched DNA substrate: nucleotide added to the mismatch binding reaction mixture, FIG. 3 at 25 and 250 micromolar; for IC50: G/T-mismatched DNA substrate, read-out: IC50 (concentration required to cause release of 50% of a population of heterodimers from a G/T-mismatched DNA substrate); for S-shifted material re-associated with the DNA as NS-shifted heterodimer: increasing amounts of nucleotide added
[3] = target: T2, hMSH2:hMSH6 heterodimer ATPase (Homo sapiens, UniProt P43246+P52701); test: ATPase assays (steady state and initial velocity); type: biochemical
T2 construct: made in house; host or cells: SF9 insect cells, baculovirus (pFastBac dual)
T2 sequence (P43246 whole entry): as the sequence (P43246 whole entry) above
T2 sequence (P52701 whole entry): as the sequence (P52701 whole entry) above
Procedure: Buffer P comprised 40 millimolar HEPES which had been adjusted to pH 7.8 using NaOH, 75 millimolar NaCl, 10 millimolar MgCl2, 1.75 millimolar DTT, and 0.075 millimolar EDTA, and 15% (v/v) glycerol. Steady state reaction measurements were made using 60 nanomolar hMSH2:hMSH6 heterodimer and either 240 nanomolar homoduplex 39-base pair DNA substrate or 240 nanomolar G/T mismatched 39-base pair DNA substrate. Reaction mixtures were incubated at 37° C. for thirty minutes, and the reaction was stopped by addition of 400 microliters of a solution comprising 10% (w/v) activated charcoal (Sigma Chemical Co., St. Louis, Mo.) and 1 millimolar EDTA. Charcoal was pelleted by centrifuging the mixture at 10,000 rotations per minute for ten minutes. The 32p content of duplicate 100 microliter aliquots of the supernatant was assessed by liquid scintillation.
Aliquots were removed at selected times and electrophoresed as described herein. A control aliquot was removed and prepared for electrophoresis prior to addition of the MgCl2-containing Buffer P to the reaction mixture.
TLC was performed as previously described (Fishel et al., 1988, Proc. Natl. Acad. Sci. USA 85:36-40).

[4] = test system: homologous 81-base pair DNA substrate; test: Gel mobility shift and DNase footprint assays of heterodimer binding to homoduplex DNA; settings: homoduplex concentrations greater than 400 nanomolar
Procedure: Gel mobility shift assays were performed by incubating a hMSH2:hMSH6 heterodimer and 9 femtomoles of either the ^32P-labeled homologous 81-base pair DNA substrate or the ^32P-labeled G/T-mismatched 81-base pair DNA substrate in a buffer comprising 50 millimolar NaCl, 25 millimolar HEPES buffer which had been adjusted to pH 7.5 using NaOH, 1 millimolar DTT, 0.01 millimolar EDTA, and 15% (v/v) glycerol. The buffer included 10 nanograms per microliter of poly dI-dC (Pharmacia LKB Biotechnology Inc., Piscataway, N.J.). […] In certain experiments described herein, the incubation mixture further comprised selected concentrations of nucleotides or non-labeled DNA. In other experiments described herein, the incubation mixture further comprised 1 millimolar MgCl2 or 5 millimolar EDTA. […] Each incubation mixture was applied to a gel comprising 4% (w/v) polyacrylamide (29:1 ratio of acrylamide:bis-acrylamide) 4% (v/v) glycerol, 40 millimolar Tris acetate buffer (pH 7.8), and 1 millimolar EDTA. Electrophoresis was performed by applying 200 volts to the gel for two hours. Following electrophoresis, each gel was dried and quantitated using a phosphoimaging device obtained from Molecular Dynamics. […]

[5] = test system: G/T-mismatched 81-base pair DNA substrate; test: Gel mobility shift and DNase footprint assays of heterodimer binding to mismatched DNA
Procedure: Gel mobility shift assays were performed by incubating a hMSH2:hMSH6 heterodimer and 9 femtomoles of either the ^32P-labeled homologous 81-base pair DNA substrate or the ^32P-labeled G/T-mismatched 81-base pair DNA substrate in a buffer comprising 50 millimolar NaCl, 25 millimolar HEPES buffer which had been adjusted to pH 7.5 using NaOH, 1 millimolar DTT, 0.01 millimolar EDTA, and 15% (v/v) glycerol. The buffer included 10 nanograms per microliter of poly dI-dC (Pharmacia LKB Biotechnology Inc., Piscataway, N.J.). […] In certain experiments described herein, the incubation mixture further comprised selected concentrations of nucleotides or non-labeled DNA. In other experiments described herein, the incubation mixture further comprised 1 millimolar MgCl2 or 5 millimolar EDTA. […] Each incubation mixture was applied to a gel comprising 4% (w/v) polyacrylamide (29:1 ratio of acrylamide:bis-acrylamide) 4% (v/v) glycerol, 40 millimolar Tris acetate buffer (pH 7.8), and 1 millimolar EDTA. Electrophoresis was performed by applying 200 volts to the gel for two hours. Following electrophoresis, each gel was dried and quantitated using a phosphoimaging device obtained from Molecular Dynamics.
Incubation of the hMSH2:hMSH6 heterodimer with ^32P-labeled DNA substrates was performed as described for gel mobility shift assays, except that 18 femtomoles of 32p-labeled DNA substrate was used in each assay. Following incubation, 80 microliters of a buffer comprising 50 millimolar NaCl, 25 millimolar HEPES buffer which had been adjusted to pH 7.8 using NaOH, 1 millimolar DTT, 10 nanograms per microliter poly dI-dC, 1.25 millimolar CaCl2, 3.1 millimolar MgCl2, 10% (v/v) glycerol, and 33 picograms per microliter DNase (Boehringer Mannheim, Indianapolis, Ind.) was added to each incubation mixture. […]

hMSH2:hMSH6 heterodimer [6] = target: T3, hMSH2:hMSH6 heterodimer (Homo sapiens, UniProt P43246;P52701 P43246:1-934,P52701:1-1360); test: footprint; DNase footprint; about 25 nt asymmetrically protected on both strands; no adenine nucleotide; settings: tags: 6xHis at N-terminus of hMSH6; Sf9 baculovirus (pFastBac dual) co-expression; label: 32P 5' end; single G/T mismatch
T3 sequence (P43246 whole entry, chain 1 of 2): as the sequence (P43246 whole entry) above
T3 sequence (P52701 whole entry, chain 2 of 2): as the sequence (P52701 whole entry) above
Procedure: (§1) The apparent dissociation constant (Kd) was determined in a simple buffer system comprising neither an adenine nucleotide nor magnesium using the homologous 81-base pair DNA substrate and the G/T-mismatched 81-base pair DNA substrate described herein.
hMSH2:hMSH6 heterodimer [7] = target: T3, hMSH2:hMSH6 heterodimer; test: EMSA; apparent Kd; no adenine nucleotide, no Mg; 50 mM NaCl, HEPES pH 7.5, poly dI-dC, 37 C; settings: tags: 6xHis at N-terminus of hMSH6; Sf9 baculovirus (pFastBac dual) co-expression; label: 32P 5' end; single G/T mismatch
Procedure: (§2) The buffer included 10 nanograms per microliter of poly dI-dC (Pharmacia LKB Biotechnology Inc., Piscataway, N.J.). […] In certain experiments described herein, the incubation mixture further comprised selected concentrations of nucleotides or non-labeled DNA. In other experiments described herein, the incubation mixture further comprised 1 millimolar MgCl₂ or 5 millimolar EDTA. […] Each incubation mixture was applied to a gel comprising 4% (w/v) polyacrylamide (29:1 ratio of acrylamide:bis-acrylamide) 4% (v/v) glycerol, 40 millimolar Tris acetate buffer (pH 7.8), and 1 millimolar EDTA. Electrophoresis was performed by applying 200 volts to the gel for two hours. Following electrophoresis, each gel was dried and quantitated using a phosphoimaging device obtained from Molecular Dynamics.
as §1
hMSH2:hMSH6 heterodimer [8] = target: T3, hMSH2:hMSH6 heterodimer; test: EMSA; no NS product observed with 39-bp homoduplex; settings: tags: 6xHis at N-terminus of hMSH6; Sf9 baculovirus (pFastBac dual) co-expression; fully complementary homoduplex
Procedure: as §2

[9] = 0.2 millimolar ATP, 1 millimolar MgCl2, ADP 0 to 3.2 millimolar
[10] = ATP alone as a substrate (absence of DNA)
[11] = ATP and G/C-mismatched DNA as substrates
[12] = ATP and G/T-mismatched DNA as substrates

- half-life of the ADP-bound heterodimer (hMSH2:hMSH6 heterodimer [1]; absence of DNA): greater than eight hundred
- half-life of the ADP-bound heterodimer (hMSH2:hMSH6 heterodimer [1]; presence of G/T-mismatched DNA substrate): less than two
- excess of ADP giving approximately complete reversal of ATP-caused substrate release (hMSH2:hMSH6 heterodimer [2]; [9]): 16 fold
- excess of ADP to ATP giving reversal of approximately half of the ATP-caused substrate release (hMSH2:hMSH6 heterodimer [2]; [9]): 2- to 3 fold
- effect on G/T mismatch binding / release of the heterodimer from G/T-mismatched DNA substrate (hMSH2:hMSH6 heterodimer [2]): increased binding affinity
Molecule: Nc1ncnc2c1ncn2[C@@H]1O[C@H](COP(=O)(O)OP(=O)(O)O)[C@@H](O)[C@H]1O [ADP]

Molecule: Nc1ncnc2c1ncn2[C@@H]1O[C@H](COP(=O)(O)OP(=O)(O)CP(=O)(O)O)[C@@H](O)[C@H]1O [AMP-PCP, adenyl-(beta-, gamma-methylene)-diphosphonate]
- effect on G/T mismatch binding / release of the heterodimer from G/T-mismatched DNA substrate (hMSH2:hMSH6 heterodimer [2]): Failure of AMP-PNP and AMP-PCP to stimulate release

Molecule: Nc1ncnc2c1ncn2[C@@H]1O[C@H](COP(=O)(O)OP(=O)(O)NP(=O)(O)O)[C@@H](O)[C@H]1O [AMP-PNP, adenylyl-imidodiphosphate]
- effect on G/T mismatch binding / release of the heterodimer from G/T-mismatched DNA substrate (hMSH2:hMSH6 heterodimer [2]): Failure of AMP-PNP and AMP-PCP to stimulate release

- calculated Kcat for ATP ([3]; 37° C.): > 0.333 s⁻¹
- Km [3, 10]: ~10 µM
- kcat [3, 10]: about 0.9 minute^1
- Km [3, 11]: ~23 µM
- kcat [3, 11]: about 7.4 minute-^1
- Km [3, 12]: ~46 µM
- kcat [3, 12]: about 26 minute-^1
- mismatched DNA substrate binding activity recovered after magnesium addition (hMSH2:hMSH6 heterodimer [2]; 15 micromolar nucleotide, ten minutes of incubation at 37° C.): ~70%
- IC50 (hMSH2:hMSH6 heterodimer [2]): ~3000 nM
- effect on binding of the heterodimer to homoduplex DNA (NS binding) (hMSH2:hMSH6 heterodimer [2]; homoduplex DNA): not affected
- S-shifted material re-associated with the DNA as NS-shifted heterodimer (hMSH2:hMSH6 heterodimer [2]): approximately 15%
Molecule: Nc1ncnc2c1ncn2[C@@H]1O[C@H](COP(=O)(O)OP(=O)(O)OP(=O)(O)O)[C@@H](O)[C@H]1O [ATP]

- effect on G/T mismatch binding / release of the heterodimer from G/T-mismatched DNA substrate (hMSH2:hMSH6 heterodimer [2]): caused release
Molecule: Nc1ncnc2c1ncn2[C@H]1C[C@H](O)[C@@H](COP(=O)(O)OP(=O)(O)OP(=O)(O)O)O1 [dATP, 2′-deoxy adenosine triphosphate]

Molecule: Adenosine-5′-O-3-thiotriphosphate [ATP-gamma-S]
- IC50 (hMSH2:hMSH6 heterodimer [2]): 3000 nM
- mismatched DNA substrate binding activity recovered after magnesium addition (hMSH2:hMSH6 heterodimer [2]; following incubation at 37° C., time not stated): about 22%
- S-shifted material re-associated with the DNA as NS-shifted heterodimer (hMSH2:hMSH6 heterodimer [2]): approximately 15%

- saturability of binding of non-mismatched DNA [4]: not saturable
- Kd ([5]; buffer comprising neither an adenine nucleotide nor magnesium, gel shift and DNase footprint assays, read-out: apparent dissociation constant (Kd) for G/T mismatches): ~20 nM
- efficiency of binding to a G/T mismatch relative to hMSH2 alone ([5]; compared with literature values for hMSH2 alone): at least ten
Molecule: hMSH2:hMSH6 heterodimer: purified human mismatch recognition complex of hMSH2 and six-histidine-tagged hMSH6, overexpressed in SF9 insect cells
- half-life of the G/T-mismatched DNA substrate-bound heterodimer ([5]; 400-fold excess of non-labeled homoduplex DNA, no ATP): greater than ten

B1: G/T-mismatched 81-bp duplex (dsDNA)
DNA 1: AAAGCTGGAGCTGAAGCTTAGCTTAGGATCATCGAGGATCGAGCTCGGTGCAATTCAGCGGTACCCAATTCGCCCTATAGT
DNA 2: ACTATAGGGCGAATTGGGTACCGCTGAATTGCACCGAGCTTGATCCTCGATGATCCTAAGCTAAGCTTCAGCTCCAGCTTT
modifications: [G41 (strand 1) opposite T41 (strand 2), G/T mismatch]
- Kd (hMSH2:hMSH6 heterodimer [6]): 20 nM
- Kd (hMSH2:hMSH6 heterodimer [7]): 20 nM

B2: homologous 39-bp duplex (dsDNA)
DNA 1: CGGCGAATTCCACCAAGCTTGATCGCTCGAGGTACCAGG
DNA 2: CCTGGTACCTCGAGCGATCAAGCTTGGTGGAATTCGCCG
- binding result (hMSH2:hMSH6 heterodimer [8]): no binding
